Here are results for one molecule from patent US20250367121A1, “DOSAGE FORMS COMPRISING ACTIVE PHARMACEUTICAL INGREDIENTS” (AXSOME THERAPEUTICS, INC., priority 2018, published 2025).

This series in a line: clinical. Conditions: human, in vivo.

On to `CN(C)CCc1c[nH]c2ccc(Cn3cncn3)cc12` [Rizatriptan, rizatriptan], for which the peak level (Cmax) was 20.7 ng/mL and the Tmax was determined as 45 min.

Broadly, the Cmax is the highest concentration seen after dosing. For orientation: Tmax means the time at which the peak concentration occurs.
